Key:
[1] = target: human serum albumin (HSA) (Homo sapiens, UniProt P02768); experiment: Binding site study with HSA, replacement of markers DanG and DanF (fluorescence); set-up: purchased Sigma-Aldrich Chemie GmbH; details: for percentage of the replacement of DanG: drug site 1 marker; for percentage of the replacement of DanF: drug site 2 marker
Excerpt: HSA, the most important transport protein in our body, has two main binding sites with high affinity to drug binding: drug site 1 in subdomain IIA and drug site 2 in subdomain IIIA [71, 72, 73]. To determine which site the test compounds bind to, the analysis with markers having an affinity for one of the binding sites can be used. Dansylated amino acids turn out to be good for this type of research. In our study, we used dansyl-L-glycine (DanG) and dansyl-L-phenylalanine (DanF) as drug site 1 and drug site 2 markers, respectively. DanG and DanF bound with HSA show the phenomenon of fluorescence at the excitation wave equal to 350 nm. Under these conditions, the fluorescence spectrum is recorded with a band maximum at approximately 510 nm for DanG and 505 nm for DanF, respectively. We conducted a study in which we introduced successive portions of the analyzed compounds to a solution containing equimolar amounts of HSA and each marker. We increased the molar ratio of the reactants from 1:1:0 to 1:1:10. The intensity of fluorescence decreases during the addition of successive portions of the analyzed compounds.
Based on the obtained results, it is possible to calculate the percentage of replacement of DanG or DanF in the complex with albumin by the tested compounds and thus compare the effectiveness of this reaction for all analyzed molecules. (6) percentage of replacement=F0−F/F0·100%
(§1) Binding site studies were conducted using fluorescence measurements. Spectra were recorded on Cary Eclipse 500 spectrophotometer (Agilent, Santa Clara, CA, USA) at room temperature with a 10 mm path length. HSA and AAG solutions were prepared in phosphate buffer, giving concentrations equal to 1 × 10^−6 M. The concentrations of dansylated-L-glycine (DanG), dansylated-L-phenylalanine (DanF), and quinaldine red (QR) were 1 × 10^−3 M. The densylated amino acids and QR solutions were prepared in ethanol. For the HSA-dansylated amino acids studies, the excitation wavelength was equal to 350 nm, while for the AAG-QR system, it was 500 nm, respectively. Then, 3 mL of protein was mixed with 3 µL of marker solution, giving a molar ratio of 1 to 1. Next, successive portions of the analyzed compounds were added to the mixtures prepared in this way, obtaining the appropriate protein-to-compound molar ratios, amounting to 1:0, 1:0.5, 1:1, 1:2, 1:3, 1:4, 1:5, and 1:10 for the HSA-densylated amino acids systems, and 1:0, 1:0.5, 1:1, 1:2, 1:3, 1:4, 1:6, 1:8, and 1:10 for the AAG-QR systems.

[2] = tested on: normal human dermal fibroblasts (NHDF); experiment: MTT assay, viability of NHDF cell culture (ISO 10993 part 5); format: cell-based; details: NHDF cell cultures, 24 h incubation; for IC50: Homo sapiens, MTT, mean (± SD), n = 5
Description: The viability of the normal human dermal fibroblasts (NHDF) cell culture after 24 h incubation with the tested compounds 5a-c-7a-c was assessed by carrying out the MTT assay. This test was performed according to ISO 10993 part 5, Appendix C. For all tested compounds, the IC50 values were calculated using four-parameter logistics. Normal human dermal fibroblasts (NHDF) were purchased from the American Type Culture Collection (ATCC) for cytotoxicity evaluation of the tested compounds. The cells were grown in Dulbecco's Modified Eagle Medium DMEM with […] glucose without phenol red supplemented with 10% FBS and 2 mM L-glutamine, and 25 μg/mL gentamicin. The NHDF cells were cultured under standard conditions (5% CO2, 37 °C, and 95% humidity) with evaluation morphology and confluence at least twice a week. For the assay, the cells were used only in a logarithmic growth phase, and the TrypLE solution was used for 2 min at 37 °C to detach cells. Then, the TrypLE solution was inactivated by adding a culture medium, and the suspension of cells was collected into a tube and centrifuged for 5 min at 1000 rpm. Then, the supernatant was removed, fresh medium was added, and the pellet was resuspended and calculated using the […] chamber. The suspension of cells was prepared to allow seeding 10,000 cells/well density and incubated for 24 h to regenerate in CO2-incubator. The tested compounds were dissolved in DMSO to a final concentration of 10 mM and stored at -20 °C. Before use, the compound solution was kept at room temperature until thawing, and then, samples with 3 different concentrations of compounds were prepared (100 μM, 50 μM, and 10 μM) for each compound. The tested concentrations of compounds were prepared in a culture medium. […] The evaluation of the cytotoxicity of the newly synthesized compounds was carried out in accordance with the ISO 10,993 part V standard by performing the MTT test. After seeding at a density of 10,000 cells per well and adhering overnight, the NHDF cells were treated with the test compounds for 24 h in a CO2 incubator. The supernatant was then removed, the cells were washed with PBS, a 1mg/mL solution of MTT dissolved in MEM was added, and the cultures were re-incubated for 2 h in a CO2 incubator. The medium was then removed, and for a further 30 min, the formazan crystals were dissolved in 100 μL of isopropanol. The absorbance was measured with a Varioskan Go microplate reader at a wavelength of 570 nm. […] For enzyme assays, the IC50 was calculated according to the procedure provided by the kit manufacturer. The significance was set at p < 0.05. Based on the tests performed, the test power was calculated to be greater than 80%.

[3] = tested on: alpha-1-acid glycoprotein (AAG); experiment: Binding site study with AAG, replacement of marker quinaldine red (fluorescence); set-up: species or system human
Excerpt: Orosomucoid has seven binding sites in its molecule, but there is only one site where the drugs bind. A very good fluorescent marker for binding site study in the case of AAG is quinalidine red (QR).
We used a 500 nm excitation wavelength. In these conditions, the maximum emission spectra were located near 600 nm. We increased the molar ratio of the reactants from 1:1:0 to 1:1:10. The intensity of fluorescence decreases during the addition of successive portions of the analyzed compounds.
as §1

[4] = tested on: alpha-1-acid glycoprotein (AAG); experiment: Fluorescence quenching titration of AAG
Description: Aex is the absorbance at excitation wavelengths, and Aem is the absorbance at emission wavelengths.
The correlation between the stability constant of complexes Kb and standard thermodynamic parameters enthalpy change (ΔH°), and entropy change (ΔS°) was determined by the van’t Hoff Equation (4):(4) logKb=−∆H^°/RT+∆S^°/R where R is the universal gas constant; the free energy change (ΔG°) can be calculated by following Equation (5):(5) ∆G^°=∆H^°−T∆S^°=−RTlnKb
The fluorescence study was performed on a Cary Eclipse 500 spectrophotometer (Agilent, Santa Clara, CA, USA). The spectra were recorded in a cuvette with 10 mm path length at an emission range of 300–500 nm, and the excitation wavelength was 280 nm.

[5] = HSA:marker:compound molar ratio 1:1:0.5
[6] = HSA:marker:compound molar ratio 1:1:1
[7] = HSA:marker:compound molar ratio 1:1:2
[8] = HSA:marker:compound molar ratio 1:1:3
[9] = HSA:marker:compound molar ratio 1:1:4
[10] = HSA:marker:compound molar ratio 1:1:5
[11] = HSA:marker:compound molar ratio 1:1:10
[12] = AAG:marker:compound molar ratio 1:1:0.5
[13] = AAG:marker:compound molar ratio 1:1:1
[14] = AAG:marker:compound molar ratio 1:1:2
[15] = AAG:marker:compound molar ratio 1:1:3
[16] = AAG:marker:compound molar ratio 1:1:4
[17] = AAG:marker:compound molar ratio 1:1:6
[18] = AAG:marker:compound molar ratio 1:1:8
[19] = AAG:marker:compound molar ratio 1:1:10

human serum albumin (HSA), sequence (P02768 25-609): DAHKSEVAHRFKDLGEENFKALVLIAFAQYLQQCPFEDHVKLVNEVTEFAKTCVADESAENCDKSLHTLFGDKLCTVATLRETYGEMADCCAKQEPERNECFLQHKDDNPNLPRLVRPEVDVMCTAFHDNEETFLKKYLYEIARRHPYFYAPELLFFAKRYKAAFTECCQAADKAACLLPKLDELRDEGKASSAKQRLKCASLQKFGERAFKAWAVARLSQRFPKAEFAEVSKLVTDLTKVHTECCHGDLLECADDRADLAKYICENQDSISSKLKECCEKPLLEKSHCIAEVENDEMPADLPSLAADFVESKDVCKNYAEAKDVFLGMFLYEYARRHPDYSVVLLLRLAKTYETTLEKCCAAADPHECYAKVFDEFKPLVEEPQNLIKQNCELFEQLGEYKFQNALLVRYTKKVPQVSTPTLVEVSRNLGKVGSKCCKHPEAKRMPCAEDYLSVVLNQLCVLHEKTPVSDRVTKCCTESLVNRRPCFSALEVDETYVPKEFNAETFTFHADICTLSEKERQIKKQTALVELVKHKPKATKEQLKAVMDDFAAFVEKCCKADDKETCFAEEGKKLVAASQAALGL

## Cc1c2c(OCC(=O)N/N=C/c3ccccc3)nn(C)c(=O)c2c(C)n1-c1cccc(Cl)c1 [Compound 5c, N-[(Z/E)-benzylideneamino]-2-[6-(3-chlorophenyl)-3,5,7-trimethyl-4-oxo-pyrrolo[3,4-d]pyridazin-1-yl]oxyacetamide]
[1]; [5]
  percentage of the replacement of DanG: 2.9%
  percentage of the replacement of DanF: 6.2%
[1]; [6]
  percentage of the replacement of DanG: 2.9%
  percentage of the replacement of DanF: 9.5%
[1]; [7]
  percentage of the replacement of DanG: 4.3%
  percentage of the replacement of DanF: 13.8%
[1]; [8]
  percentage of the replacement of DanG: 5.0%
  percentage of the replacement of DanF: 18.1%
[1]; [9]
  percentage of the replacement of DanG: 5.7%
  percentage of the replacement of DanF: 19.0%
[1]; [10]
  percentage of the replacement of DanG: 6.4%
  percentage of the replacement of DanF: 21.0%
[1]; [11]
  percentage of the replacement of DanG: 11.4%
  percentage of the replacement of DanF: 23.3%
[2]
  IC50: 95.2 ± 1.5 µM
  Cell Morphology in Culture: Cells with an elongated shape characteristic of fibroblasts, the granularities were observed in 3–5 fields of view from 10 analyzed fields.
[3]; [12]
  percentage of the replacement of QR: 31.7%
[3]; [13]
  percentage of the replacement of QR: 39.7%
[3]; [14]
  percentage of the replacement of QR: 52.4%
[3]; [15]
  percentage of the replacement of QR: 54.0%
[3]; [16]
  percentage of the replacement of QR: 54.8%
[3]; [17]
  percentage of the replacement of QR: 55.6%
[3]; [18]
  percentage of the replacement of QR: 55.6%
[3]; [19]
  percentage of the replacement of QR: 55.6%
[4]; T 297 K
  Ksv: 15.87± 2.41 ·10^4 dm^3·mol^−1
  kq: 15.87 ·10^12 dm^3·mol^−1·s^−1
  logKb: 2.64 ± 0.16
[4]; T 303 K
  Ksv: 14.60 ± 2.05 ·10^4 dm^3·mol^−1
  kq: 14.60 ·10^12 dm^3·mol^−1·s^−1
  logKb: 2.47 ± 0.17
[4]; T 308 K
  Ksv: 9.99 ± 1.60 ·10^4 dm^3·mol^−1
  kq: 9.99 ·10^12 dm^3·mol^−1·s^−1
  logKb: 2.31 ± 0.20

## Cc1c2c(OCC(=O)N/N=C/c3ccccc3)nn(C)c(=O)c2c(C)n1-c1ccccc1 [Compound 5b, N-[(Z/E)-benzylideneamino]-2-(3,5,7-trimethyl-4-oxo-6-phenyl-pyrrolo[3,4-d]pyridazin-1-yl)oxy-acetamide]
[1]; [5]
  percentage of the replacement of DanG: 0%
  percentage of the replacement of DanF: 5.2%
[1]; [6]
  percentage of the replacement of DanG: 0.7%
  percentage of the replacement of DanF: 9.1%
[1]; [7]
  percentage of the replacement of DanG: 5.6%
  percentage of the replacement of DanF: 15.7%
[1]; [8]
  percentage of the replacement of DanG: 7.7%
  percentage of the replacement of DanF: 20.4%
[1]; [9]
  percentage of the replacement of DanG: 9.8%
  percentage of the replacement of DanF: 23.5%
[1]; [10]
  percentage of the replacement of DanG: 11.2%
  percentage of the replacement of DanF: 27.4%
[1]; [11]
  percentage of the replacement of DanG: 14.0%
  percentage of the replacement of DanF: 32.2%
[2]
  IC50: 486 ± 6.5 µM
  Cell Morphology in Culture: Normal morphology of fibroblasts-elongated cells, single granular cells in 1 of 10 assessed fields of view.
[3]; [12]
  percentage of the replacement of QR: 17.2%
[3]; [13]
  percentage of the replacement of QR: 29.1%
[3]; [14]
  percentage of the replacement of QR: 40.3%
[3]; [15]
  percentage of the replacement of QR: 47.0%
[3]; [16]
  percentage of the replacement of QR: 52.2%
[3]; [17]
  percentage of the replacement of QR: 55.2%
[3]; [18]
  percentage of the replacement of QR: 56.7%
[3]; [19]
  percentage of the replacement of QR: 58.2%
[4]; T 297 K
  Ksv: 10.41 ± 1.08 ·10^4 dm^3·mol^−1
  kq: 10.41 ·10^12 dm^3·mol^−1·s^−1
  logKb: 2.71 ± 0.21
[4]; T 303 K
  Ksv: 11.41 ± 1.42 ·10^4 dm^3·mol^−1
  kq: 11.41 ·10^12 dm^3·mol^−1·s^−1
  logKb: 2.53 ± 0.15
[4]; T 308 K
  Ksv: 8.39 ± 1.24 ·10^4 dm^3·mol^−1
  kq: 8.39 ·10^12 dm^3·mol^−1·s^−1
  logKb: 2.35 ± 0.12
